Data from article PMC6104039 (Nature Communications, 2018).
Where “and” joins values, the source holds several entries; their conditions need not be identical. Identical values can stand only once.

Assays:
cortical neuron cultures = test: Live-cell ceramide synthase assay: deuterated ceramide from D7-dihydrosphingosine; conditions: two hour pre-treatment
Description: Mouse cortical neurons were prepared from E16 pups[65] and seeded at 5 × 10^6 cells/well in poly-D-lysine coated six-well plates. Two weeks after seeding, neurons were pre-treated for 2 h with P053, then incubated for a further 1 h with 1 μM deuterated dihydrosphingosine (D7-dhSph). Lipid extraction and quantification of D7-ceramide using liquid chromatography-tandem mass spectrometry (LC-MS/MS)[34] is described below.
Targeted quantification of ceramide, HexCer, and SM species in primary neurons, HEK293 cells, mouse brain, and gastrocnemius muscle lipid extracts was performed by LC-MS/MS on a TSQ Access triple quadrupole mass spectrometer (Thermo Fisher Scientific)[69]. Lipids were separated on a 3 × 150 mm Agilent XDB-C8 column (5 μM pore size) with a 10 min isocratic chromatography run using methanol containing 0.2% formic acid as the mobile phase. Precursor ions were the precise [M + H] species for each lipid. […] Deuterated (D7) ceramides were detected as the corresponding m/z + 7 ions.

gastrocnemius muscle = test: Targeted analysis of ceramide, SM and HexCer in gastrocnemius muscle; type: in vivo, mice; design: HexCer 18:1/22:0 content of gastrocnemius muscle / SM 34:1 content of gastrocnemius muscle / SM 34:2 content of gastrocnemius muscle / SM 36:2 content of gastrocnemius muscle / SM 36:1 content of gastrocnemius muscle / SM 40:1 content of gastrocnemius muscle / SM 42:2 content of gastrocnemius muscle / SM 42:1 content of gastrocnemius muscle / Cer 18:1/16:0 content of gastrocnemius muscle / Cer 18:1/18:0 content of gastrocnemius muscle / Cer 18:2/18:0 content of gastrocnemius muscle / Cer 18:0/18:0 content of gastrocnemius muscle / Cer 18:1/22:0 content of gastrocnemius muscle / Cer 18:1/24:1 content of gastrocnemius muscle / Cer 18:0/24:1 content of gastrocnemius muscle / Cer 18:1/24:0 content of gastrocnemius muscle / HexCer 18:1/16:0 content of gastrocnemius muscle / HexCer 18:1/18:0 content of gastrocnemius muscle / HexCer 18:1/20:0 content of gastrocnemius muscle: unit not given beside the values
SkM = test: Mitochondrial DNA content of SkM by quantitative PCR; type: in vivo, mice
Description: Total DNA was isolated using standard phenol:chloroform extraction, followed by RNase H (NEB) treatment. Relative levels of nuclear and mitochondrial DNA were determined by quantitative PCR on a LightCycler 480 (Roche) using SensiFAST SYBR mastermix (Bioline). Primers for quantification of genomic DNA were: 5′- […]-3′, and 5′- […]-3′; and mitochondrial DNA: 5′- […]-3′, and 5′- […]-3′[73]. Calibration curves of Ct against input DNA were prepared from a pooled sample of mouse SkM DNA, and used to calculate the relative abundance of mitochondrial to nuclear DNA in each sample.

With `C[C@@](N)(CO)CCc1ccc(OCc2ccc(Cl)c(Cl)c2)cc1` [P053, (S)-2-amino-4-(4-(3,4-dichlorobenzyloxy)phenyl)-2-methylbutan-1-ol] the “de novo C18:0 ceramide synthesis from deuterated dihydrosphingosine” value (cortical neuron cultures) was “dose-dependent inhibition”, the “C18 ceramide, C18 dihydroceramide and 18:2/18:0 ceramide in gastrocnemius muscle” value (gastrocnemius muscle; 5 mg/kg daily) was “significant reductions” and the “Cer 18:0/18:0 content of gastrocnemius muscle” value (gastrocnemius muscle; Chow + P053, individual mice) was 6.716 and 7.477 and 5.961 and 6.052 and 7.077 and 6.063 and 5.232 and 5.747 and 5.304 and 6.401. For the same compound, the “Cer 18:0/24:1 content of gastrocnemius muscle” value (gastrocnemius muscle; Chow + P053, individual mice) was 3.2091 and 2.598 and 3.667 and 1.8279 and 1.954 and 2.772 and 2.055 and 2.027 and 2.139 and 3.699, the “Cer 18:1/16:0 content of gastrocnemius muscle” value (gastrocnemius muscle; Chow + P053, individual mice) was 0.3484 and 0.3091 and 0.3437 and 0.3068 and 0.4605 and 0.637 and 0.2188 and 0.4293 and 0.2277 and 0.4584 and the “Cer 18:1/18:0 content of gastrocnemius muscle” value (gastrocnemius muscle; Chow + P053, individual mice) was 20.203 and 22.2043 and 20.4893 and 19.2549 and 21.0178 and 15.4813 and 13.2288 and 14.0008 and 17.6182 and 17.1195. The “Cer 18:1/20:0 content of gastrocnemius muscle” value (gastrocnemius muscle; Chow + P053, individual mice) was 0.4999 and 0.7758 and 0.6909 and 0.4845 and 0.671 and 0.9486 and 0.5576 and 0.508 and 0.7146 and 0.7451, the “Cer 18:1/22:0 content of gastrocnemius muscle” value (gastrocnemius muscle; Chow + P053, individual mice) was 2.697 and 2.247 and 2.924 and 2.061 and 2.474 and 3.27 and 1.828 and 2.047 and 1.902 and 3.1173 and the “Cer 18:1/24:0 content of gastrocnemius muscle” value (gastrocnemius muscle; Chow + P053, individual mice) was 7.198 and 5.637 and 7.43 and 4.359 and 4.709 and 6.914 and 4.421 and 4.245 and 5.265 and 6.526. The “Cer 18:1/24:1 content of gastrocnemius muscle” value (gastrocnemius muscle; Chow + P053, individual mice) was 11.8242 and 9.129 and 9.681 and 7.066 and 8.758 and 11.6384 and 7.885 and 7.128 and 7.643 and 10.6448, the “Cer 18:2/18:0 content of gastrocnemius muscle” value (gastrocnemius muscle; Chow + P053, individual mice) was 0.4658 and 0.5512 and 0.4225 and 0.4514 and 0.5661 and 0.3835 and 0.2283 and 0.4455 and 0.4165 and 0.4597 and the “HexCer 18:1/16:0 content of gastrocnemius muscle” value (gastrocnemius muscle; Chow + P053, individual mice) was 0.2006 and 0.1094 and 0.05472 and 0.08462 and 0.1035 and 0.3016 and 0.02008 and 0.2899 and 0.1794 and 0.1526. For the same compound, the “HexCer 18:1/18:0 content of gastrocnemius muscle” value (gastrocnemius muscle; Chow + P053, individual mice) was 2.77 and 1.138 and 0.685 and 0.5505 and 1.7658 and 1.01 and 1.02 and 3.397 and 2.789 and 0.3088, the “HexCer 18:1/20:0 content of gastrocnemius muscle” value (gastrocnemius muscle; Chow + P053, individual mice) was 4.98 and 2.2562 and 1.185 and 0.63 and 2.136 and 1.46 and 2.186 and 5.934 and 4.2225 and 0.5191 and the “HexCer 18:1/22:0 content of gastrocnemius muscle” value (gastrocnemius muscle; Chow + P053, individual mice) was 28.6994 and 10.5255 and 7.341 and 3.05 and 12.9786 and 10.4072 and 8.903 and 30.0855 and 20.1916 and 3.513. For the same compound, the “HexCer 18:1/22:1 content of gastrocnemius muscle” value (gastrocnemius muscle; Chow + P053, individual mice) was 2.443 and 0.8441 and 0.5964 and 0.2415 and 0.9642 and 0.3777 and 0.6547 and 2.558 and 1.9817 and 0.2068, the “HexCer 18:1/24:0 content of gastrocnemius muscle” value (gastrocnemius muscle; Chow + P053, individual mice) was 131.55 and 47.7053 and 35.5956 and 20.727 and 57.5213 and 45.8559 and 36.9456 and 110.769 and 86.5459 and 16.7978 and the “HexCer 18:1/24:1 content of gastrocnemius muscle” value (gastrocnemius muscle; Chow + P053, individual mice) was 55.5818 and 22.7923 and 17.8764 and 8.062 and 22.9046 and 20.0825 and 17.0776 and 61.9168 and 40.6919 and 8.475. For the same compound, the “SM 34:1 content of gastrocnemius muscle” value (gastrocnemius muscle; Chow + P053, individual mice) was 55.2092 and 65.2319 and 37.406 and 53.6606 and 49.036 and 73.0423 and 41.7651 and 81.6186 and 53.5156 and 54.7372, the “SM 34:2 content of gastrocnemius muscle” value (gastrocnemius muscle; Chow + P053, individual mice) was 2.561 and 2.363 and 1.4133 and 1.332 and 1.809 and 2.655 and 1.68 and 2.4957 and 1.926 and 1.425 and the “SM 36:1 content of gastrocnemius muscle” value (gastrocnemius muscle; Chow + P053, individual mice) was 242.303 and 230.3 and 206.587 and 243.389 and 210.049 and 199.927 and 174.992 and 270.736 and 215.295 and 156.154. The “SM 36:2 content of gastrocnemius muscle” value (gastrocnemius muscle; Chow + P053, individual mice) was 3.724 and 3.017 and 3.098 and 3.4 and 2.856 and 3.2428 and 2.648 and 4.315 and 4.019 and 3.053, the “SM 40:1 content of gastrocnemius muscle” value (gastrocnemius muscle; Chow + P053, individual mice) was 97.5537 and 51.1596 and 53.7207 and 21.6057 and 37.8369 and 48.3173 and 39.3705 and 88.0525 and 69.3339 and 48.817 and the “SM 42:1 content of gastrocnemius muscle” value (gastrocnemius muscle; Chow + P053, individual mice) was 88.2897 and 52.3856 and 29.1894 and 16.6817 and 42.3452 and 43.7529 and 25.0289 and 89.171 and 54.8125 and 29.4411. For the same compound, the “SM 42:2 content of gastrocnemius muscle” value (gastrocnemius muscle; Chow + P053, individual mice) was 288.299 and 175.495 and 168.331 and 87.7791 and 166.49 and 221.175 and 113.727 and 338.716 and 212.277 and 185.512, the “Cer 18:0/18:0 content of gastrocnemius muscle” value (gastrocnemius muscle; HFD + P053, individual mice) was 6.696 (2×) and 6.991 and 7.614 and 9.306 and 10.4442 and 6.363 and 5.154 and 5.258 and 4.509 and the “Cer 18:0/24:1 content of gastrocnemius muscle” value (gastrocnemius muscle; HFD + P053, individual mice) was 4.519 and 1.914 and 1.715 and 1.673 and 2.381 and 12.1481 and 1.438 and 1.998 and 3.6 and 0.9202. For the same compound, the “Cer 18:1/16:0 content of gastrocnemius muscle” value (gastrocnemius muscle; HFD + P053, individual mice) was 0.2953 and 0.2425 and 0.247 and 0.3667 and 0.6053 and 1.286 and 0.3154 and 0.1867 and 0.2439 and 0.2642, the “Cer 18:1/18:0 content of gastrocnemius muscle” value (gastrocnemius muscle; HFD + P053, individual mice) was 21.9657 and 17.6562 and 21.0561 and 17.8475 and 19.1897 and 17.6974 and 13.2972 and 14.5082 and 22.6242 and 9.617 and the “Cer 18:1/20:0 content of gastrocnemius muscle” value (gastrocnemius muscle; HFD + P053, individual mice) was 1.3 and 0.9773 and 1.039 and 0.7088 and 1.3618 and 1.151 and 0.5199 and 0.8084 and 1.045 and 0.6734. The “Cer 18:1/22:0 content of gastrocnemius muscle” value (gastrocnemius muscle; HFD + P053, individual mice) was 6.663 and 2.886 and 2.627 and 3.138 and 3.9433 and 5.15 and 2.442 and 3.877 and 4.12 and 2.291, the “Cer 18:1/24:0 content of gastrocnemius muscle” value (gastrocnemius muscle; HFD + P053, individual mice) was 8.75 and 4.723 and 4.013 and 4.317 and 4.82 and 10.8999 and 3.077 and 4.318 and 7.266 and 2.309 and the “Cer 18:1/24:1 content of gastrocnemius muscle” value (gastrocnemius muscle; HFD + P053, individual mice) was 11.3105 and 7.675 and 5.851 and 7.272 and 9.129 and 11.5338 and 5.462 and 9.029 and 11.0555 and 5.753. For the same compound, the “Cer 18:2/18:0 content of gastrocnemius muscle” value (gastrocnemius muscle; HFD + P053, individual mice) was 0.4484 and 0.4926 and 0.3634 and 0.4132 and 0.2765 and 0.3608 and 0.2849 and 0.2673 and 0.3042 and 0.2757, the “HexCer 18:1/16:0 content of gastrocnemius muscle” value (gastrocnemius muscle; HFD + P053, individual mice) was 0.07083 and 0.2298 and 0.1257 and 0.1094 and 0.2809 and 0.09552 and 0.04859 and 0.09042 and 0.2927 and 0.128 and the “HexCer 18:1/18:0 content of gastrocnemius muscle” value (gastrocnemius muscle; HFD + P053, individual mice) was 0.6278 and 2.316 and 1.725 and 1.053 and 1.514 and 0.3784 and 1.339 and 1.2334 and 3.411 and 0.7622. For the same compound, the “HexCer 18:1/20:0 content of gastrocnemius muscle” value (gastrocnemius muscle; HFD + P053, individual mice) was 1.025 and 3.657 and 4.193 and 2.559 and 2.728 and 0.775 and 2.303 and 1.6216 and 6.493 and 1.535, the “HexCer 18:1/22:0 content of gastrocnemius muscle” value (gastrocnemius muscle; HFD + P053, individual mice) was 7.522 and 16.4106 and 20.0443 and 14.4231 and 12.9484 and 5.248 and 12.5609 and 13.236 and 35.9679 and 8.484 and the “HexCer 18:1/22:1 content of gastrocnemius muscle” value (gastrocnemius muscle; HFD + P053, individual mice) was 0.5466 and 1.486 and 1.3 and 1.291 and 1.104 and 0.193 and 0.8615 and 0.6275 and 2.662 and 0.7906. For the same compound, the “HexCer 18:1/24:0 content of gastrocnemius muscle” value (gastrocnemius muscle; HFD + P053, individual mice) was 35.0734 and 65.2406 and 70.8422 and 52.1762 and 47.7217 and 19.7676 and 40.4927 and 43.8786 and 131.229 and 26.1187, the “HexCer 18:1/24:1 content of gastrocnemius muscle” value (gastrocnemius muscle; HFD + P053, individual mice) was 11.8966 and 34.458 and 33.6892 and 26.2534 and 24.7881 and 7.796 and 20.5958 and 23.2933 and 61.9739 and 13.7499 and the “SM 34:1 content of gastrocnemius muscle” value (gastrocnemius muscle; HFD + P053, individual mice) was 32.5351 and 75.4148 and 64.2595 and 68.4699 and 74.2315 and 69.3058 and 56.8022 and 63.1231 and 40.9981 and 91.0819. For the same compound, the “SM 34:2 content of gastrocnemius muscle” value (gastrocnemius muscle; HFD + P053, individual mice) was 1.53 and 2.835 and 1.998 and 2 and 2.418 and 2.144 and 2.133 and 2.338 and 2.209 and 2.34, the “SM 36:1 content of gastrocnemius muscle” value (gastrocnemius muscle; HFD + P053, individual mice) was 125.344 and 223.512 and 246.64 and 236.8 and 200.399 and 135.056 and 273.936 and 199.397 and 141.624 and 291.891 and the “SM 36:2 content of gastrocnemius muscle” value (gastrocnemius muscle; HFD + P053, individual mice) was 1.77 and 3.547 and 2.905 and 2.734 and 5.421 and 3.741 and 3.767 and 2.494 and 1.973 and 4.895. The “SM 40:1 content of gastrocnemius muscle” value (gastrocnemius muscle; HFD + P053, individual mice) was 74.9293 and 89.7182 and 104.131 and 44.9676 and 58.8143 and 74.268 and 90.7758 and 60.0553 and 174.22 and 68.0463, the “SM 42:1 content of gastrocnemius muscle” value (gastrocnemius muscle; HFD + P053, individual mice) was 42.7745 and 43.392 and 45.2063 and 34.368 and 60.6982 and 34.7124 and 28.1104 and 34.3376 and 109.833 and 16.1089 and the “SM 42:2 content of gastrocnemius muscle” value (gastrocnemius muscle; HFD + P053, individual mice) was 124.791 and 220.201 and 175.989 and 144.772 and 171.488 and 135.796 and 111.009 and 132.926 and 406.752 and 102.287. For the same compound, the “mitochondrial DNA content” value (SkM) was “elevated”.
